{"source": "patent US20120207742A1", "about": "(priority 2011, published 2012)", "test_system": "DU-145 cells", "type": "cell-based, human"}
{"smiles": "C=C1[C@@H](C)[C@H]2[C@H](Cc3ccccc3)NC(=O)[C@]23[C@H](OC(C)=O)/C=C/[C@@](C)(O)C(=O)[C@@H](C)C/C=C/[C@H]3[C@@H]1O", "note": "[Cytochalasin-D]", "values": [{"measurement": "effect on cell migration", "value": "did not migrate"}]}
